The source of these data is patent EP0381141B1, “Novel aryl- or heteroaryl-1-alkyl-pyrrole-2-carboxylic acid compounds useful in treating interleukin-1 mediated conditions” (MERRELL DOW PHARMACEUTICALS INC., priority 1989, dated 1990).

The assay deals with Interleukin-1 Secretion by Macrophages. Briefly: Ex vivo inhibition of interleukin-1 secretion by macrophages (LPS-stimulated peritoneal cells from orally dosed mice; IL-1 measured by thymocyte H3-thymidine incorporation). Type of assay: in vivo. The conditions noted are these: p.o. 3 times (40, 24 and 16 hours prior to sacrifice); for Interleukin-1 units/ml Mean ± Sem(n): 100 mg/kg, macrophage culture supernatant, unit = reciprocal of the dilution required to give 50% of maximal H3-thymidine incorporation; for inhibition at 100 mg/kg: Mus musculus, Macrophage, po, versus control group. The protocol: The interleukin-1 inhibitory properties of the compounds of this invention can readily be determined by standard and well known procedures.
Peritoneal cells from mice which had been orally dosed with 100 mg/kg of test compound 40, 24 and 16 hours prior to sacrifice, were collected by lavage, pooled and washed by centrifugation. The cells were resuspended in RPMI-1640 medium containing antibiotics, and plated. After 1 hour of incubation at 37°C, non-adherent cells were removed, and RPMI, with or without lipopolysaccharide, was added to each well. The presence of lipopolysaccharide will induce interleukin-1 secretion by macrophages. After incubation for 6 hours, the culture supernatant was collected, filtered and stored until assayed.
Mouse thymocytes were suspended in RPMI enriched with fetal bovine serum and 2-mercaptoethanol. Aliquots of cell suspension were incubated with an equal volume of dilutions of macrophage culture supernatant in the presence of a suboptimal amount of phytohemagglutinin for 72 hours in flat-bottom plates. Microcultures were pulsed with H³-thymidine for the last 16 hours and were harvested on glass fiber filters. H₃-thymidine will be incorporated into the DNA of actively proliferating cells. The radioactivity was determined by liquid scintillation counting, and interleukin-1 activity was expressed in units defined as the reciprocal of the dilution required to give 50% of maximal H³-thymidine incorporation.
Compounds were administered at a dosage of 100 mg/kg, p.o. 3 times (40, 24 and 16 hours prior to sacrifice). Compound 1: 1-(2-furanylmethyl)-1H-pyrrole-2-carboxylic acid Compound 2: 1-(phenylmethyl)-1Hpyrrole-2 -carboxylic acid Compound 3: 1-([1,1'-biphenyl]-4-ylmethyl)-1H -pyrrole-2-carboxylic acid

A word on the inhibition: it is the percentage by which the read-out fell short of the control. Consider `O=C(O)c1cccn1Cc1ccco1` [Compound 1, 1-(2-furanylmethyl)-1H-pyrrole-2-carboxylic acid], for which the “Interleukin-1 units/ml Mean ± Sem(n)” value is 10.2 +/- 3.4 units/ml and the inhibition at 100 mg/kg is 93.2%.
Taken in the same sequence, the figures for `O=C(O)c1cccn1Cc1ccccc1` [Compound 2, 1-(phenylmethyl)-1H-pyrrole-2-carboxylic acid] were 171.3 +/- 7.9 units/ml and 67.4%.
With `O=C(O)c1cccn1Cc1ccc(-c2ccccc2)cc1` [Compound 3, 1-([1,1'-Biphenyl]-4-ylmethyl)-1H-Pyrrole-2-Carboxylic Acid], the “Interleukin-1 units/ml Mean ± Sem(n)” value is listed as 26.6 +/- 3.9 units/ml and testing at 100 mg/kg gave an inhibition of 94.9%.
